This assay concerns 252836-082-R-J2-PDC tumor spheroids, viability. The assay is described as follows: Anticancer human tumor 252836-082-R-J2-PDC patient-derived head and neck squamous cell carcinoma cell line growth inhibition [PI3K]. To be noted: spheroids with HUVEC and MSC; for viability, T/C: stronger effect = lower value. In outline:
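Tumor cells grown as multi-cell spheroids with HUVEC endothelial cells and MSC fibroblast-like stroma were treated with targeted agents combined with inavolisib, alpelisib, duvelisib or copanlisib. Doses fell in half-log steps from near clinical Cmax, else from 10 microM. Viability was measured.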

Molecules are shown by their SMILES.

Broadly, the IC50 is the midpoint of a concentration-inhibition curve. Broadly, the viability, T/C is the result in the treated group divided by that in the control group, in per cent.
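Further: spheroids exposed to agents for seven days before readout.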
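Wherever viability, T/C is given: percent of vehicle DMSO control viability so 100% = untreated growth.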

As to `CC(C)NCC(C(=O)N1CCN(c2ncnc3c2C(C)CC3O)CC1)c1ccc(Cl)cc1` (stereo unspecified) + COc1c(OCCCN2CCOCC2)ccc2c3n(c(=NC(=O)c4cnc(N)nc4)nc12)CCN3, the IC50 (curve of first compound, second compound 0.00316 µM) came out at 1040 nM; the half-maximal inhibitory concentration (IC50) (curve of first compound, second compound 0.01 µM) stood at 566 nM; the IC50 (curve of first compound, second compound 0.0316 µM) was 285 nM; the IC50 (curve of first compound, second compound 0.1 µM) is below 31.6 nM; the IC50 (curve of first compound, second compound 0.316 µM) is below 31.6 nM; the IC50 (curve of first compound, second compound 1 µM) was below 31.6 nM. The viability, T/C by setting is: (second compound 0.00316 µM, first compound 0.0316 µM) 82.9%; (second compound 0.00316 µM, first compound 0.1 µM) 77.9%; (second compound 0.00316 µM, first compound 0.316 µM) 64.8%; (second compound 0.00316 µM, first compound 1 µM) 50.6%; (second compound 0.00316 µM, first compound 3.16 µM) 34.6%; (second compound 0.00316 µM, first compound 10 µM) 20.3%. For the same compound, the viability, T/C runs as follows: (second compound 0.01 µM, first compound 0.0316 µM) 71.2%; (second compound 0.01 µM, first compound 0.1 µM) 64.3%; (second compound 0.01 µM, first compound 0.316 µM) 59.7%; (second compound 0.01 µM, first compound 1 µM) 41.3%; (second compound 0.01 µM, first compound 3.16 µM) 26.4%; (second compound 0.01 µM, first compound 10 µM) 15.4%. In addition, the viability, T/C is, setting by setting: (second compound 0.0316 µM, first compound 0.0316 µM) 56.2%; (second compound 0.0316 µM, first compound 0.1 µM) 56.4%; (second compound 0.0316 µM, first compound 0.316 µM) 47.2%; (second compound 0.0316 µM, first compound 1 µM) 40%; (second compound 0.0316 µM, first compound 3.16 µM) 21.9%; (second compound 0.0316 µM, first compound 10 µM) 11.6%. Also, the viability, T/C by setting is: (second compound 0.1 µM, first compound 0.0316 µM) 36.6%; (second compound 0.1 µM, first compound 0.1 µM) 30.3%; (second compound 0.1 µM, first compound 0.316 µM) 26%; (second compound 0.1 µM, first compound 1 µM) 24.7%; (second compound 0.1 µM, first compound 3.16 µM) 17.1%; (second compound 0.1 µM, first compound 10 µM) 10.2%. For the same compound, the viability, T/C is, setting by setting: (second compound 0.316 µM, first compound 0.0316 µM) 14.3%; (second compound 0.316 µM, first compound 0.1 µM) 13.8%; (second compound 0.316 µM, first compound 0.316 µM) 11.6%; (second compound 0.316 µM, first compound 1 µM) 12.8%; (second compound 0.316 µM, first compound 3.16 µM) 8.52%; (second compound 0.316 µM, first compound 10 µM) 5.44%. Also, the viability, T/C (second compound 1 µM, first compound 0.0316 µM) is 4.96%; the viability, T/C (second compound 1 µM, first compound 0.1 µM) was 3.28%; the viability, T/C (second compound 1 µM, first compound 0.316 µM) is 5.23%; the viability, T/C (second compound 1 µM, first compound 1 µM) is 4.34%; the viability, T/C (second compound 1 µM, first compound 3.16 µM) was 3.37%; the viability, T/C (second compound 1 µM, first compound 10 µM) was 3.42%.

With `C=CC(=O)N1CCN(c2nc(=O)n(-c3c(C)ccnc3C(C)C)c3nc(-c4c(O)cccc4F)c(F)cc23)C(C)C1` (stereo unspecified), the viability, T/C (compound 0.0316 µM) was 98% [middle of 4 runs]; the viability, T/C (compound 0.1 µM) was 95.6% [middle of 4 runs]; the viability, T/C (compound 10 µM) was 99.2% [middle of 4 runs]. For the same compound, the IC50 (curve of compound) is above 10000 nM.

The values above are taken from PubChem BioAssay AID1963985 (Molecular Pharmacology Branch, DTP, NCI, 2024).
